Test results: PMC11793105, “A kalihinol analog disrupts apicoplast function and vesicular trafficking in P. falciparum malaria” (Science (New York, N.Y.), 2024)
Where two headings read alike, the source gives them in different places.

Columns and labels:
[1] = test system: P. cynomolgi M/B strain parasites; test: P. cynomolgi M/B strain drug assay (Hoechst flow cytometry); type: cell-based; conditions: Plasmodium cynomolgi, harvested 60 hours after initial dosing
Source text: Detailed information on materials and methods is available in the supplementary materials. […] P. knowlesi assays were quantitatively measured by flow cytometry using SYBR Green I and Mitrotracker Deep Red, as previously described ([84], [85]), on a Beckman Coulter CytoFLEX. Nonhuman primate infections were required to generate P. cynomolgi M/B strain parasites for in vitro testing ([82], [86]). […]
reduction in weight, aggressive or unexpected animal behavior, animals are immediately euthanized with CO2. If no toxic effects are observed, mice are euthanized with CO2 at the end of […]
After infection, parasitemia was monitored daily by thick and thin blood films as previously described in Joyner et al. 2019 (86). […]
dosing. […] The experiment was repeated twice, and each concentration was assessed in […]
Data analysis The percentage of parasitized erythrocytes was determined by enumerating the number of Hoechst positive events out of the total erythrocytes after excluding non-single cells by forward and side scatter. The percent survival was calculated by averaging the parasitemia in the triplicates for each condition and then dividing by the parasitemia observed in the wells that did not receive drug treatment. The IC50 was then calculated using GraphPad Prism 9 (GraphPad […]

[2] = test system: P. falciparum 3D7 (MRA-102, drug sensitive); test: SYBR Green I growth inhibition assay, 3D7; type: cell-based; conditions: Plasmodium falciparum
Protocol: Fig. 1. […] (B) SYBR Green–based dose response assays were conducted on early-ring stage parasites (6 hours after invasion). […] 3D7 WT (blue), NF54 (green), drug-resistant strains Dd2 (red), HB3 (black), W2 (gray), and D10-ACP-GFP (purple) lines (Sigmoidal, 4PL, X is concentration, n ≥ 3, nonlinear regression, CI: 95%). (C) Schematic diagram of the development of P. falciparum after two consecutive erythrocytic cycles. The time points at which MED6-189 was introduced are depicted in green. HPS, hours post synchronization. […] The images depict various developmental stages of the parasite’s intraerythrocytic life cycle. Bordered images represent time points when drug was first introduced (n = 3 biological replicates, P < 0.05).
Detailed information on materials and methods is available in the supplementary materials. […] P. knowlesi assays were quantitatively measured by flow cytometry using SYBR Green I and Mitrotracker Deep Red, as previously described ([84], [85]), on a Beckman Coulter CytoFLEX. […]
P. falciparum in vitro SYBR green fluorescence-based assays The anti-malarial activity of individual analogues were evaluated in-vitro against P. falciparum 3D7 (MRA-102, drug […]
green-I based fluorescence assay. Parasite growth rate and stages of development were determined via microscopy through Giemsa-stained smears of the cultures. […]

Compound [C-]#[N+][C@]1(C)CC[C@H]2[C@@H]([C@@H](C(C)C)CC[C@]2(C)[N+]#[C-])[C@H]1O [MED6-189] has an IC50 [1] of 136 ± 56 nM, an IC50 ([2]; 3D7, read-out: IC50 (µM) P. falciparum (3D7)) of 0.015 µM and an IC50 ([2]; 3D7, early-ring stage (6 h after invasion), 72 h exposure, read-out: IC50) of 0.014 ± 0.002 µM.
